For data set [1], the target named is T1, CD45 (Homo sapiens, UniProt P08575).
T1 construct: incubating the cytosolic portion of CD45 with the compounds and p-nitrophenyl phosphate (pNPP); purchased BIOMOL (Plymouth Meeting, Pa.)
T1 sequence (P08575 599-1306 limits assumed): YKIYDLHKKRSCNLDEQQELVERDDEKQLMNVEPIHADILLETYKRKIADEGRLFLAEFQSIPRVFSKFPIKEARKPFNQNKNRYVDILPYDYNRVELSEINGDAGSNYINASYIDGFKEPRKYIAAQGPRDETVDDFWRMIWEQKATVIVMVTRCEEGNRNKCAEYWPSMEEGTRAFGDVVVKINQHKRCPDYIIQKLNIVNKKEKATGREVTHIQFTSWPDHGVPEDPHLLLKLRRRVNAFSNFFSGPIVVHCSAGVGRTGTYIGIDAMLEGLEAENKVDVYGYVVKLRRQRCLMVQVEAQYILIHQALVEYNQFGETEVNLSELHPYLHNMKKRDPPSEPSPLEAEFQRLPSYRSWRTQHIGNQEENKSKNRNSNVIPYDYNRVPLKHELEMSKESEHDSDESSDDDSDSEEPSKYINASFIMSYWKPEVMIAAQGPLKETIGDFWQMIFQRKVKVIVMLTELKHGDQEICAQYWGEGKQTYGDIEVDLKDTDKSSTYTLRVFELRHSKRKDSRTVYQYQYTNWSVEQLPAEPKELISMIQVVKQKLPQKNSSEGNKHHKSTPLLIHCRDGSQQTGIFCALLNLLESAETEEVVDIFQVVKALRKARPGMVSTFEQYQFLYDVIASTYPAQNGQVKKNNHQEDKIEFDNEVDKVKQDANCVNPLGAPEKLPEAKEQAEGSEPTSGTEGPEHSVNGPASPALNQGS
In words: Phosphatase assay using pNPP as substrate. It is filed as biochemical. To be noted: read-out: pNPP IC50. The method, then: Phosphatase assay using pNPP as substrate:
CD45 enzyme was obtained from BIOMOL (Plymouth Meeting, Pa.). Phosphatase activity was assayed in a buffer containing final concentrations of 25 mM imidazole at pH 7.0, 50 mM NaCl, 2.5 mM ethylenediaminetetraacetic acid (“EDTA”), 5 mM dithiothreitol (“DTT”) and 10 μg/mL bovine serum albumin (“BSA”) using pNPP as a substrate.

Data set [2] deals with T1, CD45. In words: Phosphatase assay using lck 10-mer as substrate. The format is biochemical. The method in brief: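 Enzyme incubated with lck phosphopeptide TEGQpYQPQP for 1.5 h at room temperature in 25 mM HEPES pH 7.2, 5 mM DTT, 10 μg/mL BSA, 5% DMSO final. Compounds tested from 30 to 0.01 μM. Released phosphate detected with malachite-type Green Reagent, absorbance at 620 nm after 30 min.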

A further data set is described as follows: in vitro. Conditions: human.
The next data set concerns T cells (PBMC). Briefly: cells. To be noted: read-out: T cell prolif. IC50. The format is cell-based, human.
A short description of data set [3]: Cytotoxicity assay (Calcein-AM uptake). Conditions: human, PHA-expanded T-cell lymphoblasts from PBMC.
Where [4] appears, read: CD45 phosphatase, pNPP substrate, pH 7.0.
Setting [5] is: CD45 phosphatase, lck carboxy-terminal peptide TEGQpYQPQP substrate, pH 7.2, read-out: Ick IC50.
Setting [6] is: human PBMC, OKT3 30 ng/mL, [3H]thymidine.

Like-named read-outs stand apart in the source and are kept apart here. Where a SMILES comes first, the peptide text is derived from it. The star is where a group is joined. 3Phenanthroyl(9,10-dioxo) = O=C1C(=O)c2ccc(C(=O)*)cc2-c2ccccc21 A value given as a limit tells only on which side of the number the result lay.

As a reminder, the IC50 is the concentration that gives 50% inhibition. With `NC(=O)CC[C@H](NC(=O)[C@@H]1CCCN1C(=O)[C@H](CCC(N)=O)NC(=O)[C@H](CCC(=O)O)NC(=O)c1ccc2c(c1)-c1ccccc1C(=O)C2=O)C(=O)N1CCC[C@H]1C(=O)O` [Example 24] ({3Phenanthroyl(9,10-dioxo)}-EQPQP-OH), the results for the IC50 at CD45 [1] (pH 7) and against CD45 [2] were 600 nM and 2400 nM, respectively. Further, the CC50 in “in vitro” is over 30000 nM.

On to `NC(=O)CC[C@H](NC(=O)[C@@H]1CCCN1C(=O)[C@H](CCC(N)=O)NC(=O)CNC(=O)c1ccc2c(c1)-c1ccccc1C(=O)C2=O)C(=O)N1CCC[C@H]1C(=O)O` [Example 25] ({3Phenanthroyl(9,10-dioxo)}-GQPQP-OH), for which the IC50 at CD45 [1] (pH 7) was determined as 1200 nM; at CD45 [2] it was 2500 nM. Further, the CC50 in “in vitro” was over 30000 nM.

Turning to `NC(=O)CC[C@H](NC(=O)c1ccc2c(c1)-c1ccccc1C(=O)C2=O)C(=O)N[C@@H](CCC(N)=O)C(=O)N1CCC[C@H]1C(=O)N[C@@H](CCC(N)=O)C(=O)N1CCC[C@H]1C(=O)O` [Example 26] ({3Phenanthroyl(9,10-dioxo)}-QQPQP-OH), the IC50 worked out at 700 nM at CD45 [1] (pH 7) and 2300 nM against CD45 [2]. The molecule also displayed a CC50 in “in vitro” of over 30000 nM.

Turning to `NC(=O)CC[C@H](NC(=O)[C@@H]1CCCN1C(=O)[C@H](CCC(=O)O)NC(=O)CNC(=O)c1ccc2c(c1)-c1ccccc1C(=O)C2=O)C(=O)N1CCC[C@H]1C(=O)O` [Example 27] ({3Phenanthroyl(9,10-dioxo)}-GEPQP-OH), the IC50 at CD45 [1] (pH 7) is 700 nM; against CD45 [2] it was 3100 nM. In addition, in the data set “in vitro”, the CC50 was over 30000 nM.

For `NC(=O)CC[C@H](NC(=O)c1ccc2c(c1)-c1ccccc1C(=O)C2=O)C(=O)N[C@@H](CCC(=O)O)C(=O)N1CCC[C@H]1C(=O)N[C@@H](CCC(N)=O)C(=O)N1CCC[C@H]1C(=O)O` [Example 28] ({3Phenanthroyl(9,10-dioxo)}-QEPQP-OH), the IC50 at CD45 [1] (pH 7) amounted to 1100 nM; on CD45 [2] it was 2200 nM. Moreover, the CC50 in “in vitro” is over 30000 nM.

Consider `NC(=O)CC[C@H](NC(=O)CNC(=O)c1ccc2c(c1)-c1ccccc1C(=O)C2=O)C(=O)NCC(=O)N[C@@H](CCC(N)=O)C(=O)N1CCC[C@H]1C(=O)O` [Example 29] ({3Phenanthroyl(9,10-dioxo)}-GQGQP-OH), for which the concentration for half-maximal inhibition (IC50) was determined as 1100 nM on CD45 [1] (pH 7) and 2500 nM at CD45 [2]. For the same molecule, the CC50 in the data set “in vitro” was over 30000 nM.

As for `NC(=O)CC[C@H](NC(=O)c1ccc2c(c1)-c1ccccc1C(=O)C2=O)C(=O)N[C@@H](CCC(N)=O)C(=O)NCC(=O)N[C@@H](CCC(N)=O)C(=O)N1CCC[C@H]1C(=O)O` [Example 30] ({3Phenanthroyl(9,10-dioxo)}-QQGQP-OH), the results for the half-inhibitory concentration (IC50) at CD45 [1] (pH 7) and against CD45 [2] were 900 nM and 1700 nM, respectively. The molecule also showed a CC50 in “in vitro” of over 30000 nM.

`NC(=O)CC[C@H](NC(=O)[C@H](CCC(=O)O)NC(=O)c1ccc2c(c1)-c1ccccc1C(=O)C2=O)C(=O)NCC(=O)N[C@@H](CCC(N)=O)C(=O)N1CCC[C@H]1C(=O)O` [Example 31] ({3Phenanthroyl(9,10-dioxo)}-EQGQP-OH): the IC50 at CD45 [1] (pH 7) stood at 600 nM; on CD45 [2] it was 2500 nM. In the data set “in vitro”, the CC50 was over 30000 nM.

As to `NC(=O)CC[C@H](NC(=O)CNC(=O)[C@H](CCC(=O)O)NC(=O)CNC(=O)c1ccc2c(c1)-c1ccccc1C(=O)C2=O)C(=O)N1CCC[C@H]1C(=O)O` [Example 32] ({3Phenanthroyl(9,10-dioxo)}-GEGQP-OH), the 50% inhibitory concentration (IC50) amounted to 700 nM at CD45 [1] (pH 7) and 2300 nM against CD45 [2]. In “in vitro”, this molecule came in with a CC50 of over 30000 nM.

For the molecule `NC(=O)CC[C@H](NC(=O)c1ccc2c(c1)-c1ccccc1C(=O)C2=O)C(=O)N[C@@H](CCC(=O)O)C(=O)NCC(=O)N[C@@H](CCC(N)=O)C(=O)N1CCC[C@H]1C(=O)O` [Example 33] ({3Phenanthroyl(9,10-dioxo)}-QEGQP-OH), the results for the half-inhibitory concentration (IC50) at CD45 [1] (pH 7) and at CD45 [2] were 1100 nM and 2500 nM, respectively. This molecule yielded a CC50 in “in vitro” of over 30000 nM.

In the case of `NC(=O)CC[C@H](NC(=O)CNC(=O)c1ccc2c(c1)-c1ccccc1C(=O)C2=O)C(=O)NCC(=O)N[C@@H](CCC(=O)O)C(=O)N1CCC[C@H]1C(=O)O` [Example 35] ({3Phenanthroyl(9,10-dioxo)}-GQGEP-OH), the results for the IC50 at CD45 [1] (pH 7) and against CD45 [2] were 900 nM and 1400 nM, respectively. Further, the CC50 in the data set “in vitro” was over 30000 nM.

Turning to `Nc1cccc2c1-c1ccccc1C(=O)C2=O` [Example 89, 4-Amino-phenanthrene-9,10-dione], the figures for the IC50 at CD45 [1] (setting [4]), on CD45 [2] (setting [5]) and in the data set on T cells (PBMC) (setting [6]) were 800 nM, 2900 nM and 200 nM, respectively. Moreover, the CC50 in data set [3] was 9000 nM.

Turning to `COC(=O)CCC(=O)Nc1cccc2c1C(=O)C(=O)c1ccccc1-2` [Example 91, N-(9,10-Dioxo-9,10-dihydro-phenanthren-1-yl)-succinamic Acid Methyl Ester], the figures for the IC50 on CD45 [1] (setting [4]), at CD45 [2] (setting [5]) and in the data set on T cells (PBMC) (setting [6]) were 400 nM, 4700 nM and 500 nM, respectively. The CC50 in data set [3] was 9000 nM.

Take `O=C1C(=O)c2cc([N+](=O)[O-])ccc2-c2ccccc21` [Example 92, 2-Nitro-phenanthrene-9,10-dione]: the half-inhibitory concentration (IC50) came out at 2400 nM on CD45 [1] (setting [4]), 5400 nM on CD45 [2] (setting [5]) and 1600 nM with T cells (PBMC) (setting [6]). For the same molecule, the CC50 in data set [3] is 10000 nM.

In the case of `O=C1C(=O)c2cc([N+](=O)[O-])ccc2-c2ccc([N+](=O)[O-])cc21` [Example 94, 2,7-Dinitro-phenanthrene-9,10-dione], the concentration for half-maximal inhibition (IC50) came out at 4100 nM on CD45 [1] (setting [4]), 5000 nM on CD45 [2] (setting [5]) and 500 nM in the data set with T cells (PBMC) (Homo sapiens). For the same molecule, the CC50 in data set [3] is 8000 nM.

For `O=C1C(=O)c2cc(Br)ccc2-c2ccccc21` [Example 96, 2-Bromo-phenanthrene-9,10-dione], the IC50 at CD45 [1] (setting [4]) was 370 nM; at CD45 [2] (setting [5]), 3100 nM; in the data set on T cells (PBMC) (setting [6]), 600 nM. The CC50 in data set [3] is 5000 nM.

In the case of `O=C(O)c1ccc2c(c1)C(=O)C(=O)c1ccccc1-2` [Example 97, 9,10-Dioxo-9,10-dihydro-phenanthrene-2-carboxylic Acid], the IC50 was 1000 nM at CD45 [1] (setting [4]), 3300 nM at CD45 [2] (setting [5]) and over 30000 nM in the data set with T cells (PBMC) (setting [6]). The CC50 in data set [3] is over 30000 nM.

For `O=C1C(=O)c2ccc([N+](=O)[O-])cc2-c2ccccc21` [Example 99, 3-Nitro-phenanthrene-9,10-dione], the figures for the IC50 at CD45 [1] (setting [4]), on CD45 [2] (setting [5]) and in the data set on T cells (PBMC) (setting [6]) were 500 nM, 4900 nM and 200 nM, respectively. In data set [3], the CC50 was 2800 nM.

As for `CC(=O)c1ccc2c(c1)-c1ccccc1C(=O)C2=O` [Example 100, 3-Acetyl-phenanthrene-9,10-dione], the results for the IC50 on CD45 [1] (setting [4]), at CD45 [2] (setting [5]) and in the data set on T cells (PBMC) (setting [6]) were 800 nM, 4200 nM and 800 nM, respectively. Moreover, the CC50 in data set [3] is 3500 nM.

Consider `CC(=O)c1ccc2c(c1)C(=O)C(=O)c1ccccc1-2` [Example 101, 2-Acetyl-phenanthrene-9,10-dione], for which the half-maximal inhibitory concentration (IC50) at CD45 [1] (setting [4]) was 800 nM; at CD45 [2] (setting [5]), 2900 nM; in the data set on T cells (PBMC) (setting [6]), 1100 nM. Moreover, in data set [3], the CC50 was 4500 nM.

Take `CC(C)(C)OC(=O)CNC(=O)c1ccc2c(c1)C(=O)C(=O)c1ccccc1-2` [Example 103, [(9,10-Dioxo-9,10-dihydro-phenanthrene-2-carbonyl)-amino]-acetic acid tert-butyl ester]: the IC50 at CD45 [1] (setting [4]) was 600 nM; at CD45 [2] (setting [5]) it was 4900 nM; with T cells (PBMC) (setting [6]), 400 nM. Further, in data set [3], the CC50 was 10000 nM.

In the case of `O=C(O)CNC(=O)c1ccc2c(c1)-c1ccccc1C(=O)C2=O` [Example 104, [(9,10-dioxo-9,10-dihydro-phenanthrene-3-carbonyl)-amino]-acetic acid], the IC50 on CD45 [1] (setting [4]) is 500 nM; on CD45 [2] (setting [5]) it was 3400 nM; in the data set with T cells (PBMC) (setting [6]), 6500 nM. Further, the CC50 in data set [3] was over 30000 nM.

For `O=C(O)CNC(=O)c1ccc2c(c1)C(=O)C(=O)c1ccccc1-2` [Example 105, [(9,10-Dioxo-9,10-dihydro-phenanthrene-2-carbonyl)-amino]-acetic acid], the results for the IC50 on CD45 [1] (setting [4]), on CD45 [2] (setting [5]) and in the data set on T cells (PBMC) (setting [6]) were 800 nM, 2200 nM and 4400 nM, respectively. Besides, in data set [3], the CC50 is over 30000 nM.

The values are drawn from patent US20030207812A1, “Cd45 inhibitors” (priority 2002, published 2003).
